Reference: patent publication US12122816B2, “Long acting peptide tyrosine tyrosine (PYY) analogs and methods of use” (Intarcia Therapeutics, Inc., priority 2020, dated 2024)
Starred links: 1 amine or outer side, 2 acyl side, 3 side chain; linkers in the order of their positions; H or OH if unused. Residues, ends and D or L forms follow the SMILES beside them. Groups on a side chain read outwards from the residue. *: point of attachment. C20 diacid = O=C(O)CCCCCCCCCCCCCCCCCCC(=O)*; γGlu = O=C(O)[C@H](CCC(=O)[*:2])N[*:1]

Experiments:
human Y5 receptor = molecular target: T1, human Y5 receptor (Homo sapiens, UniProt Q15761); assay: NPY receptor functional assay (cAMP, HEK-CNG cells, ACTOne membrane potential dye); format: cell-based; conditions: NPY5R pEC50, HEK-CNG cells; standard NPY; species (human or rat) not given
T1 sequence (Q15761 1-445): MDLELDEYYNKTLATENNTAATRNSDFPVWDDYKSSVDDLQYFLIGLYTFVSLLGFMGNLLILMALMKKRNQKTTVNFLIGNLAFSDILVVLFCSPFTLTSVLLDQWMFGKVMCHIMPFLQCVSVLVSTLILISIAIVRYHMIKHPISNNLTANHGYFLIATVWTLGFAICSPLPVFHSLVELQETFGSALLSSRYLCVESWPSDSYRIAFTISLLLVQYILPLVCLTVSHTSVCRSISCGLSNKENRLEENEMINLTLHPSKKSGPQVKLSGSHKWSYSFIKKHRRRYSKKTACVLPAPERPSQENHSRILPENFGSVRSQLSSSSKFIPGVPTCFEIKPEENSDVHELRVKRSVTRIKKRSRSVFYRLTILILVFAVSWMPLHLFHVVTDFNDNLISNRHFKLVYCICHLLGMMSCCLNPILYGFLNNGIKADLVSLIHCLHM
Excerpt: (§1) The NPY family of G-protein coupled receptors include Y1, Y2, Y4, and Y5 in humans and rats. […] Following agonist binding, the receptor-G protein complex activates a downstream intracellular signaling cascade which leads to inhibition of adenylate cyclase and a reduction in intracellular cAMP levels.
(§2) HEK-CNG cells stably expressing the human or rat Y1, Y2, Y4 or Y5 receptors (Codex Biosolutions) were used to characterize the functional potency of peptide agonists using the ActOne™ membrane potential dye kit (Codex Biosolutions). In addition to each NPY receptor, each cell line encodes a proprietary exogenous Cyclic Nucleotide-Gated (CNG) channel (Codex Biosolutions). The channel is activated by elevated intracellular levels of cAMP, resulting in ion flux and cell membrane depolarization which can be detected with a calcium sensitive dye or fluorescent membrane potential (MP) dye. Cells were carried in growth media containing 90% DMEM, 10% FBS, 250 mcg/mL G418 and 1 mcg/mL puromycin for no more than 15 passages.
(§3) Prior to testing, cells were counted and dispensed at 14,000 cells per well (Y1, Y4 and Y5) or 28,000 cells per well (Y2) into black 384 well Poly-D-Lysine plates at 20 mcL per well. Covered plates were then incubated at room temperature for 30 minutes followed by an overnight incubation at 37° C. in 5% C02. The following day, media was removed and wells were washed once with 40 mcL Dulbecco's phosphate buffered saline. […] Ten microliters of experimental peptide or peptide standard was added in triplicate to wells and incubated for 50 minutes at room temperature in the dark. Following this incubation step, plates were read again as before (final read).
(§4) NPY receptor activation, leading to a reduction in intracellular cAMP levels, is detected as a decrease in isoproteranol induced fluorescent signal. Peptide standard and experimental values were initially transformed in excel using the formula: final read/initial read. Transformed values were then normalized to receptor specific standard values (1×10−13 M minimum and 1×10−7 M maximum) using the formula: (test value−standard minavg)/(standard maxavg−standard minavg)*100. […] Normalized data was analyzed from triplicate tests and used to estimate the EC50 for each test peptide on each receptor. Data was fit in GraphPad Prism software (v8.2.1) using a 3-parameter logistic curve model: Y=Bottom+(Top−Bottom)/(1+10^((LogEC50−X))). EC50 values were converted to pEC50 values using the formula: pEC50=−Log(EC50).

human Y2 receptor = molecular target: T2, human Y2 receptor (Homo sapiens, UniProt P49146); assay: as above; format: cell-based; conditions: NPY2R pEC50, HEK-CNG cells; standard PYY(3-36); species (human or rat) not given
T2 sequence (P49146 1-381): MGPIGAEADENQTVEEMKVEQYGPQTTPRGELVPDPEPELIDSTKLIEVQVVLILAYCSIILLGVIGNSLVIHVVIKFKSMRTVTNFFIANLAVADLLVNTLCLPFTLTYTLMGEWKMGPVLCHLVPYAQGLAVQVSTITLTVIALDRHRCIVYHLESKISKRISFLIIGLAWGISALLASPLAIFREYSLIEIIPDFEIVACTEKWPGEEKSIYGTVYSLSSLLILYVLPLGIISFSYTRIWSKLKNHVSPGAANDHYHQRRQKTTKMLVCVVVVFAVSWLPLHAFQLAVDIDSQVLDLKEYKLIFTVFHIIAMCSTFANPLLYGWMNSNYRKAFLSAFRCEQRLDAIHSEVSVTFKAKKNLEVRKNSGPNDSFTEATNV
Excerpt: as §1, §2, §3, §4

| SMILES | EC50 (human Y5 receptor) [nM] | EC50 (human Y2 receptor) [nM] |
| --- | --- | --- |
| CC(C)C[C@H](NC(=O)[C@H](CC(=O)O)NC(=O)[C@H](CCCCN)NC(=O)[C@H](Cc1ccc(O)cc1)NC(=O)[C@H](Cc1ccc(O)cc1)NC(=O)[C@H](CCCNC(=N)N)NC(=O)[C@H](CC(N)=O)NC(=O)[C@H](Cc1c[nH]c2ccccc12)NC(=O)[C@H](CCC(=O)O)NC(=O)[C@H](CCCCN)NC(=O)[C@@H]1CCCN1C(=O)[C@H](CO)NC(=O)[C@H](C)NC(=O)[C@H](CC(=O)O)NC(=O)[C@H](CCCCN)NC(=O)CNC(=O)[C@@H]1CCCN1C(=O)[C@H](CCCCNC(=O)CC[C@H](NC(=O)CC[C@H](NC(=O)CCCCCCCCCCCCCCCCCCC(=O)O)C(=O)O)C(=O)O)NC(=O)[C@H](CCC(=O)O)NC(=O)[C@@H]1CCCN1C(=O)[C@H](CCCCN)NC(=O)[C@@H]1CCCN1)C(=O)N[C@@H](CCCNC(=N)N)C(=O)N[C@@H](Cc1c[nH]cn1)C(=O)N[C@@H](Cc1ccc(O)cc1)C(=O)N[C@@H](CC(C)C)C(=O)N[C@@H](CC(N)=O)C(=O)N[C@@H](Cc1c[nH]c2ccccc12)C(=O)N[C@@H](CC(C)C)C(=O)N[C@H](C(=O)N[C@@H](CCCNC(=N)N)C(=O)N[C@@H](CCC(N)=O)C(=O)N[C@@H](CCCNC(=N)N)C(=O)N[C@@H](Cc1ccccc1)C(N)=O)[C@@H](C)O [Compound A37] (H-PKPEK([γGlu-γGlu-C20 diacid])PGKDASPKEWNRYYKDLRHYLNWLTRQRF-NH2; N-terminus assumed) | 2.51 | 0.0158 |
| CC(C)C[C@H](NC(=O)[C@H](CC(=O)O)NC(=O)[C@H](CCCCN)NC(=O)[C@H](Cc1ccc(O)cc1)NC(=O)[C@H](Cc1ccc(O)cc1)NC(=O)[C@H](CCCNC(=N)N)NC(=O)[C@H](CO)NC(=O)[C@H](Cc1c[nH]c2ccccc12)NC(=O)[C@H](CCC(=O)O)NC(=O)[C@H](CCC(=O)O)NC(=O)[C@@H]1CCCN1C(=O)[C@H](CO)NC(=O)[C@H](C)NC(=O)[C@H](CC(=O)O)NC(=O)[C@H](CCCCNC(=O)CC[C@H](NC(=O)CC[C@H](NC(=O)CCCCCCCCCCCCCCCCCCC(=O)O)C(=O)O)C(=O)O)NC(=O)CNC(=O)[C@@H]1CCCN1C(=O)[C@H](CCCCN)NC(=O)[C@H](CCC(=O)O)NC(=O)[C@@H]1CCCN1C(=O)[C@H](CCCCN)NC(=O)[C@@H]1CCCN1)C(=O)N[C@@H](CCCNC(=N)N)C(=O)N[C@@H](Cc1c[nH]cn1)C(=O)N[C@@H](Cc1ccc(O)cc1)C(=O)N[C@@H](CC(C)C)C(=O)N[C@@H](CC(N)=O)C(=O)N[C@@H](Cc1c[nH]c2ccccc12)C(=O)N[C@@H](CC(C)C)C(=O)N[C@H](C(=O)N[C@@H](CCCNC(=N)N)C(=O)N[C@@H](CCC(N)=O)C(=O)N[C@@H](CCCNC(=N)N)C(=O)N[C@@H](Cc1ccccc1)C(N)=O)[C@@H](C)O [Compound A75] | 0.501 | – |
| CC(C)C[C@H](NC(=O)[C@H](CC(=O)O)NC(=O)[C@H](CCCCN)NC(=O)[C@H](Cc1ccc(O)cc1)NC(=O)[C@H](Cc1ccc(O)cc1)NC(=O)[C@H](CCCNC(=N)N)NC(=O)[C@H](CC(=O)O)NC(=O)[C@H](Cc1c[nH]c2ccccc12)NC(=O)[C@H](CCC(=O)O)NC(=O)[C@H](CCCCN)NC(=O)[C@@H]1CCCN1C(=O)[C@H](CO)NC(=O)[C@H](C)NC(=O)[C@H](CC(=O)O)NC(=O)[C@H](CCC(=O)O)NC(=O)CNC(=O)[C@@H]1CCCN1C(=O)[C@H](CCCCNC(=O)CC[C@H](NC(=O)CC[C@H](NC(=O)CCCCCCCCCCCCCCCCCCC(=O)O)C(=O)O)C(=O)O)NC(=O)[C@H](CCC(=O)O)NC(=O)[C@@H]1CCCN1C(=O)[C@H](CCCCN)NC(=O)[C@@H]1CCCN1)C(=O)N[C@@H](CCCNC(=N)N)C(=O)N[C@@H](Cc1c[nH]cn1)C(=O)N[C@@H](Cc1ccc(O)cc1)C(=O)N[C@@H](CC(C)C)C(=O)N[C@@H](CC(N)=O)C(=O)N[C@@H](Cc1c[nH]c2ccccc12)C(=O)N[C@@H](CC(C)C)C(=O)N[C@H](C(=O)N[C@@H](CCCNC(=N)N)C(=O)N[C@@H](CCC(N)=O)C(=O)N[C@@H](CCCNC(=N)N)C(=O)N[C@@H](Cc1ccccc1)C(N)=O)[C@@H](C)O [Compound A78] | 3.16 | 0.0631 |
| CC(C)C[C@H](NC(=O)[C@H](CC(=O)O)NC(=O)[C@H](CCCCN)NC(=O)[C@H](Cc1ccc(O)cc1)NC(=O)[C@H](Cc1ccc(O)cc1)NC(=O)[C@H](CCCNC(=N)N)NC(=O)[C@H](CC(N)=O)NC(=O)[C@H](Cc1c[nH]c2ccccc12)NC(=O)[C@H](CCC(=O)O)NC(=O)[C@H](CCCCN)NC(=O)[C@@H]1CCCN1C(=O)[C@H](CO)NC(=O)[C@H](C)NC(=O)[C@H](CC(=O)O)NC(=O)[C@H](CCCCN)NC(=O)CNC(=O)[C@@H]1CCCN1C(=O)[C@H](CCCCNC(=O)CC[C@H](NC(=O)CC[C@H](NC(=O)CCCCCCCCCCCCCCCCCCC(=O)O)C(=O)O)C(=O)O)NC(=O)[C@H](CCC(=O)O)NC(=O)[C@@H]1CCCN1C(=O)[C@H](CCCCN)NC(=O)[C@@H]1CCCN1)C(=O)N[C@@H](CCCNC(=N)N)C(=O)N[C@@H](Cc1c[nH]cn1)C(=O)N[C@@H](Cc1ccc(O)cc1)C(=O)N[C@@H](CC(C)C)C(=O)N[C@@H](CC(N)=O)C(=O)N[C@@H](Cc1c[nH]c2ccccc12)C(=O)N[C@@H](CC(C)C)C(=O)N[C@H](C(=O)N[C@@H](CCCNC(=N)N)C(=O)N[C@@H](CCC(N)=O)C(=O)N[C@@H](CCCNC(=N)N)C(=O)N[C@@H](Cc1ccccc1)C(N)=O)[C@@H](C)O [Compound A71] (H-PKPEK([γGlu-γGlu-C20 diacid])PGKDASPKEWNRYYKDLRHYLNWLTRQRF-NH2; N-terminus assumed) | 1.58 | 0.02 |
| CC(C)C[C@H](NC(=O)[C@H](CC(=O)O)NC(=O)[C@H](CCCCN)NC(=O)[C@H](Cc1ccc(O)cc1)NC(=O)[C@H](Cc1ccc(O)cc1)NC(=O)[C@H](CCCNC(=N)N)NC(=O)[C@H](CC(N)=O)NC(=O)[C@H](Cc1c[nH]c2ccccc12)NC(=O)[C@H](CCC(=O)O)NC(=O)[C@H](CCCCNC(=O)CC[C@H](NC(=O)CC[C@H](NC(=O)CCCCCCCCCCCCCCCCCCC(=O)O)C(=O)O)C(=O)O)NC(=O)[C@@H]1CCCN1C(=O)[C@H](CO)NC(=O)[C@H](C)NC(=O)[C@H](CC(=O)O)NC(=O)[C@H](CCCCN)NC(=O)CNC(=O)[C@@H]1CCCN1C(=O)[C@H](CCCCN)NC(=O)[C@H](CCC(=O)O)NC(=O)[C@@H]1CCCN1C(=O)[C@H](CCCCN)NC(=O)[C@@H]1CCCN1)C(=O)N[C@@H](CCCNC(=N)N)C(=O)N[C@@H](Cc1c[nH]cn1)C(=O)N[C@@H](Cc1ccc(O)cc1)C(=O)N[C@@H](CC(C)C)C(=O)N[C@@H](CC(N)=O)C(=O)N[C@@H](Cc1c[nH]c2ccccc12)C(=O)N[C@@H](CC(C)C)C(=O)N[C@H](C(=O)N[C@@H](CCCNC(=N)N)C(=O)N[C@@H](CCC(N)=O)C(=O)N[C@@H](CCCNC(=N)N)C(=O)N[C@@H](Cc1ccccc1)C(N)=O)[C@@H](C)O [Compound A70] (H-PKPEKPGKDASPK([γGlu-γGlu-C20 diacid])EWNRYYKDLRHYLNWLTRQRF-NH2; N-terminus assumed) | 2 | 0.0398 |
